Measurements from patent publication US10577363B2, “Substituted piperidine compounds” (EPIZYME, INC., priority 2014, dated 2020).

Molecular target: SMYD3 (Homo sapiens (Human), UniProt Q9H7B4)
Test: SMYD3 biochemical assay (SPA, 3H-SAM methylation of MEKK2 protein substrate)
Settings: read-out: SMYD3 Biochem IC50 (μM)*
How it was run: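 SPA methyltransferase format: tag-cleaved human SMYD3, insect-cell GST-MEKK2 protein substrate, 3H-SAM donor, 30 min RT enzyme–compound preincubation, 100 uM cold SAM quench.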

| IC50 | SMILES |
| --- | --- |
| > 10 µM | COCCS(=O)(=O)N1CC[C@@H](NC(=O)c2cc(C3CC3)on2)C[C@@H]1C [compound 248, 5-cyclopropyl-N-((2S,4R)-1-((2-methoxyethyl)sulfonyl)-2-methylpiperidin-4-yl)isoxazole-3-carboxamide] |
| > 10 µM | CCCS(=O)(=O)N1CC[C@@H](NC(=O)c2cc(C3CC3)on2)C[C@H]1C [compound 249, 5-cyclopropyl-N-((2R,4R)-2-methyl-1-(propylsulfonyl)piperidin-4-yl)isoxazole-3-carboxamide] |
| 6.15 µM | CCCCS(=O)(=O)N1CC[C@@H](NC(=O)c2cc(C3CC3)on2)C[C@H]1C [compound 251, N-((2R,4R)-1-(butylsulfonyl)-2-methylpiperidin-4-yl)-5-cyclopropylisoxazole-3-carboxamide] |
| > 10 µM | CCOC(=O)CS(=O)(=O)N1CC[C@@H](NC(=O)c2cc(C3CC3)on2)C[C@H]1C [compound 252, ethyl 2-(((2R,4R)-4-(5-cyclopropylisoxazole-3-carboxamido)-2-methylpiperidin-1-yl)sulfonyl)acetate] |
| > 10 µM | C[C@@H]1C[C@H](NC(=O)c2cc(C3CC3)on2)CCN1S(=O)(=O)c1ccc(Cl)nc1 [compound 253, N-((2R,4R)-1-((6-chloropyridin-3-yl)sulfonyl)-2-methylpiperidin-4-yl)-5-cyclopropylisoxazole-3-carboxamide] |
| 4.14 µM | C[C@@H]1C[C@H](NC(=O)c2cc(C3CC3)on2)CCN1S(=O)(=O)N1CCCC1 [compound 254, 5-cyclopropyl-N-((2R,4R)-2-methyl-1-(pyrrolidin-1-ylsulfonyl)piperidin-4-yl)isoxazole-3-carboxamide] |
| 1.2 µM | C[C@@H]1C[C@H](NC(=O)c2cc(C3CC3)on2)CCN1S(=O)(=O)N1CCN(C)CC1 [compound 255, 5-cyclopropyl-N-((2R,4R)-2-methyl-1-((4-methylpiperazin-1-yl)sulfonyl)piperidin-4-yl)isoxazole-3-carboxamide] |
| > 10 µM | COC(=O)CCS(=O)(=O)N1CC[C@@H](NC(=O)c2cc(C3CC3)on2)C[C@H]1C [compound 256, methyl 3-(((2R,4R)-4-(5-cyclopropylisoxazole-3-carboxamido)-2-methylpiperidin-1-yl)sulfonyl)propanoate] |
| 9.29 µM | COCCS(=O)(=O)N1CC[C@@H](NC(=O)c2cc(C3CC3)on2)C[C@H]1C [compound 257, 5-cyclopropyl-N-((2R,4R)-1-((2-methoxyethyl)sulfonyl)-2-methylpiperidin-4-yl)isoxazole-3-carboxamide] |
| 8.37 µM | C[C@@H]1C[C@H](NC(=O)c2cc(C3CC3)on2)CCN1S(=O)(=O)CCC(F)(F)F [compound 258, 5-cyclopropyl-N-((2R,4R)-2-methyl-1-((3,3,3-trifluoropropyl)sulfonyl)piperidin-4-yl)isoxazole-3-carboxamide] |
| > 10 µM | COCCCS(=O)(=O)N1CC[C@@H](NC(=O)c2cc(C3CC3)on2)C[C@H]1C [compound 259, 5-cyclopropyl-N-((2R,4R)-1-((3-methoxypropyl)sulfonyl)-2-methylpiperidin-4-yl)isoxazole-3-carboxamide] |
| 2.45 µM | CCS(=O)(=O)N1CC[C@H](NC(=O)c2cc(C3CC3)on2)C[C@@H]1C [compound 260, 5-cyclopropyl-N-((2S,4S)-1-(ethylsulfonyl)-2-methylpiperidin-4-yl)isoxazole-3-carboxamide] |
| > 10 µM | CCS(=O)(=O)N1CC[C@@H](NC(=O)c2cc(C3CC3)on2)C[C@H]1C [compound 261, 5-cyclopropyl-N-((2R,4R)-1-(ethylsulfonyl)-2-methylpiperidin-4-yl)isoxazole-3-carboxamide] |
| > 10 µM | CCS(=O)(=O)N1CC[C@@H](NC(=O)c2cc(C3CC3)on2)C[C@@H]1C [compound 262, 5-cyclopropyl-N-((2S,4R)-1-(ethylsulfonyl)-2-methylpiperidin-4-yl)isoxazole-3-carboxamide] |
| 0.41 µM | C[C@@H]1CC(NC(=O)c2cc(C3CC3)on2)CCN1C(=O)CC1CCCC(N)C1 (stereo partly drawn) [compound 264, N-((2R)-1-(2-(3-aminocyclohexyl)acetyl)-2-methylpiperidin-4-yl)-5-cyclopropylisoxazole-3-carboxamide] |
| > 10 µM | C[C@H]1C[C@H](NC(=O)c2cc(C3CC3)on2)CCN1C(=O)CC1(CN)CCCCC1 [compound 266, N-((2S,4R)-1-(2-(1-(aminomethyl)cyclohexyl)acetyl)-2-methylpiperidin-4-yl)-5-cyclopropylisoxazole-3-carboxamide] |
| 8.52 µM | C[C@@H]1C[C@@H](NC(=O)c2cc(C3CC3)on2)CCN1C(=O)CC1(CN)CCCCC1 [compound 267, N-((2R,4S)-1-(2-(1-(aminomethyl)cyclohexyl)acetyl)-2-methylpiperidin-4-yl)-5-cyclopropylisoxazole-3-carboxamide] |

| IC50 | SMILES |
| --- | --- |
| 3.15 µM | C[C@@H]1C[C@@H](NC(=O)c2cc(C3CC3)on2)CCN1C(=O)CC(C)(C)CN [compound 268, N-((2R,4S)-1-(4-amino-3,3-dimethylbutanoyl)-2-methylpiperidin-4-yl)-5-cyclopropylisoxazole-3-carboxamide] |
| 7.83 µM | C[C@H]1C[C@H](NC(=O)c2cc(C3CC3)on2)CCN1C(=O)CCCCN [compound 273, N-((2S,4R)-1-(5-aminopentanoyl)-2-methylpiperidin-4-yl)-5-cyclopropylisoxazole-3-carboxamide] |
| 3.63 µM | C[C@H]1C[C@@H](NC(=O)c2cc(C3CC3)on2)CCN1S(=O)(=O)C1CC1 [compound 276, 5-cyclopropyl-N-((2S,4S)-1-(cyclopropylsulfonyl)-2-methylpiperidin-4-yl)isoxazole-3-carboxamide] |
| 0.654 µM | C[C@H]1C[C@@H](NC(=O)c2cc(C3CC3)on2)CCN1S(=O)(=O)N1CCCC1 [compound 277, 5-cyclopropyl-N-((2S,4S)-2-methyl-1-(pyrrolidin-1-ylsulfonyl)piperidin-4-yl)isoxazole-3-carboxamide] |
| 2.89 µM | CNS(=O)(=O)N1CC[C@H](NC(=O)c2cc(C3CC3)on2)C[C@@H]1C [compound 278, 5-cyclopropyl-N-((2S,4S)-2-methyl-1-(N-methylsulfamoyl)piperidin-4-yl)isoxazole-3-carboxamide] |
| 4.85 µM | COC(=O)CCS(=O)(=O)N1CC[C@H](NC(=O)c2cc(C3CC3)on2)C[C@@H]1C [compound 280, methyl 3-(((2S,4S)-4-(5-cyclopropylisoxazole-3-carboxamido)-2-methylpiperidin-1-yl)sulfonyl)propanoate] |
| 1.87 µM | COCCCS(=O)(=O)N1CC[C@H](NC(=O)c2cc(C3CC3)on2)C[C@@H]1C [compound 281, 5-cyclopropyl-N-((2S,4S)-1-((3-methoxypropyl)sulfonyl)-2-methylpiperidin-4-yl)isoxazole-3-carboxamide] |
| > 10 µM | COC(=O)CCS(=O)(=O)N1CC[C@H](NC(=O)c2cc(C3CC3)on2)C[C@H]1C [compound 282, methyl 3-(((2R,4S)-4-(5-cyclopropylisoxazole-3-carboxamido)-2-methylpiperidin-1-yl)sulfonyl)propanoate] |
| > 10 µM | COCCCS(=O)(=O)N1CC[C@H](NC(=O)c2cc(C3CC3)on2)C[C@H]1C [compound 284, 5-cyclopropyl-N-((2R,4S)-1-((3-methoxypropyl)sulfonyl)-2-methylpiperidin-4-yl)isoxazole-3-carboxamide] |
| > 10 µM | CC(C)OCCS(=O)(=O)N1CC[C@H](NC(=O)c2cc(C3CC3)on2)C[C@H]1C [compound 285, 5-cyclopropyl-N-((2R,4S)-1-((2-isopropoxyethyl)sulfonyl)-2-methylpiperidin-4-yl)isoxazole-3-carboxamide] |
| > 10 µM | C[C@H]1C[C@H](NC(=O)c2cc(C3CC3)on2)CCN1S(=O)(=O)c1ccc(Cl)nc1 [compound 287, N-((2S,4R)-1-((6-chloropyridin-3-yl)sulfonyl)-2-methylpiperidin-4-yl)-5-cyclopropylisoxazole-3-carboxamide] |
| > 10 µM | C[C@H]1C[C@H](NC(=O)c2cc(C3CC3)on2)CCN1S(=O)(=O)N1CCCC1 [compound 288, 5-cyclopropyl-N-((2S,4R)-2-methyl-1-(pyrrolidin-1-ylsulfonyl)piperidin-4-yl)isoxazole-3-carboxamide] |
| > 10 µM | CNS(=O)(=O)N1CC[C@@H](NC(=O)c2cc(C3CC3)on2)C[C@@H]1C [compound 289, 5-cyclopropyl-N-((2S,4R)-2-methyl-1-(N-methylsulfamoyl)piperidin-4-yl)isoxazole-3-carboxamide] |
| > 10 µM | COC(=O)CCS(=O)(=O)N1CC[C@@H](NC(=O)c2cc(C3CC3)on2)C[C@@H]1C [compound 290, methyl 3-(((2S,4R)-4-(5-cyclopropylisoxazole-3-carboxamido)-2-methylpiperidin-1-yl)sulfonyl)propanoate] |
| > 10 µM | C[C@H]1C[C@H](NC(=O)c2cc(C3CC3)on2)CCN1S(=O)(=O)CCC(F)(F)F [compound 292, 5-cyclopropyl-N-((2S,4R)-2-methyl-1-((3,3,3-trifluoropropyl)sulfonyl)piperidin-4-yl)isoxazole-3-carboxamide] |
| 5.97 µM | CC(C)OCCS(=O)(=O)N1CC[C@@H](NC(=O)c2cc(C3CC3)on2)C[C@H]1C [compound 296, 5-cyclopropyl-N-((2R,4R)-1-((2-isopropoxyethyl)sulfonyl)-2-methylpiperidin-4-yl)isoxazole-3-carboxamide] |
| 1.8 µM | CC[C@@H]1CN(C(=O)CCCN)CC[C@@H]1NC(=O)c1cc(C2CC2)on1 [compound 297, N-((3R,4S)-1-(4-aminobutanoyl)-3-ethylpiperidin-4-yl)-5-cyclopropylisoxazole-3-carboxamide] |

| SMILES | IC50 |
| --- | --- |
| CC(C)CS(=O)(=O)N1CC[C@@H](NC(=O)c2cc(C3CC3)on2)C[C@H]1C [compound 250, 5-cyclopropyl-N-((2R,4R)-1-(isobutylsulfonyl)-2-methylpiperidin-4-yl)isoxazole-3-carboxamide] | 9.45 µM |
